From patent US20220249418A1, “COMPOSITIONS COMPRISING AMINO ACIDS FOR USE IN THE TREATMENT OF MITOCHONDRIAL DYSFUNCTION-RELATED DISEASES” (PROFESSIONAL DIETETICS INTERNATIONAL S.R.L., priority 2017, published 2022)

Test system: HL-1 cardiomyocytes
Experiment: oxygen consumption (Clark-type oxygen electrode)
Format: cell-based, Mus musculus
Details: HL-1 cells, 48 hr treatment, normalized to protein content; FIG. 5
Method: HL-1 cardiomyocytes (a gift from W. C. Claycomb, New Orleans, School of Medicine) were plated in fibronectin/gelatin-coated flasks, grown to 70%-80% confluence in Claycomb medium (JRH Biosciences) supplemented with 100 μM norepinephrine (from a 10 mM norepinephrine [Sigma-Aldrich] stock solution dissolved in 30 mM L-ascorbic acid [Sigma-Aldrich]), 2 mM L-glutamine, 100 U/ml penicillin, 100 μg/ml streptomycin and 10% FBS (JRH Biosciences) as disclosed in Claycomb et al., 1998.
At the end of these periods, mRNA and DNA were extracted from the cells or the cells were used to evaluate the oxygen consumption. Control cells were treated with Claycomb medium only.
An amount of 1 ml of HL-1 cardiomyocytes treated with the compositions shown in Table 1 was re-suspended in Hank's balanced salt solution (Sigma) and spun down to pellet cells. A number of HL-1 cells was also supplemented with a nitic oxide (NO) donor, specifically with diethylenetriamine-NO also called (DETA-NO; Sigma-Aldrich, Milan, Italy), as positive control. […]
Samples were analyzed at 37° C. in a gas-tight vessel equipped with a Clark-type oxygen electrode (Rank Brothers Ltd.) connected to a chart recorder. […]
Oxygen consumption was assessed with continuous mixing for about ten minutes. […] Protein content was determined by using the bicinchoninic acid protein (BCA) assay.

In the case of `NCCN(CCN)/[N+]([O-])=N/O` [DETA-NO, diethylenetriamine-NO], the oxygen consumption is reported as “a rise of oxygen consumption was observed”.
